Test results: BindingDB's records for PubMed 12533678 (Japanese Foundation For Cancer Research, 2003)

Experiments:
[1] = TP_TRANSPORTER: drug resistance(SN-38) in BCRP-expressing K562 cells
[2] = TP_TRANSPORTER: drug resistance(Mitoxantrone) in BCRP-expressing K562 cells

Row | Compound | IC50 [1] [nM] | IC50 [2] [nM]
1 | CC/C(=C(/CC)c1ccc(O)cc1)c1ccc(O)cc1 | > 500 | 500
2 | CCC(=O)Oc1ccc(/C(CC)=C(\CC)c2ccc(OC(=O)CC)cc2)cc1 [propanoic acid [4-[(E)-4-[4-(1-oxopropoxy)phenyl]hex-3-en-3-yl]phenyl] ester] | > 3000 | > 3000
3 | CC/C(=C(/c1ccc(OCCN(C)C)cc1)c1ccc(OCc2ccccc2)cc1)c1ccccc1 | > 2000 | > 2000
4 | CC/C(=C(/c1ccc(OCCN(C)C)cc1)c1ccc(OCc2ccc([N+](=O)[O-])cc2)cc1)c1ccccc1 | > 2000 | 1500
